Assay results: the kinase profiling compilation of Christmann-Franck et al. (2016)

How the values were obtained:
Experiment in all cases: radiometric filter-binding kinase assay
CLK2 (human) = CLK2 (human) (UniProt P49760)
SRC (human) = SRC (human) (UniProt P12931)
MST4 (human) = MST4 (human) (UniProt Q9P289)
GCK (human) = GCK (human) (UniProt Q12851)
RPS6KA3 KD1 KD2 (human) = RPS6KA3 KD1 KD2 (human) (UniProt P51812)
MAPK3 (human) = MAPK3 (human) (UniProt P27361)
MARK4 (human) = MARK4 (human) (UniProt Q96L34)
[1] = system: SGK1 (human), O00141 [S422D]
BRSK2 (human) = BRSK2 (human) (UniProt Q8IWQ3)
PRKCA (human) = PRKCA (human) (UniProt P17252)
MAP3K5 (human) = MAP3K5 (human) (UniProt Q99683)
STK3 (human) = STK3 (human) (UniProt Q13188)
HIPK1 (human) = HIPK1 (human) (UniProt Q86Z02)
ERBB4 (human) = ERBB4 (human) (UniProt Q15303)
MAP3K1 (human) = MAP3K1 (human) (UniProt Q13233)
AURKA (human) = AURKA (human) (UniProt O14965)
MAPK1 (human) = MAPK1 (human) (UniProt P28482)
PAK6 (human) = PAK6 (human) (UniProt Q9NQU5)
CHEK2 (human) = CHEK2 (human) (UniProt O96017)
FLT1 (human) = FLT1 (human) (UniProt P17948)
CDK2 CCNA2 (human) = CDK2 CCNA2 (human) (UniProt P20248+P24941)
PLK1 (human) = PLK1 (human) (UniProt P53350)
NTRK1 (human) = NTRK1 (human) (UniProt P04629)
TAOK1 (human) = TAOK1 (human) (UniProt Q7L7X3)
EEF2K (human) = EEF2K (human) (UniProt O00418)
NUAK1 (human) = NUAK1 (human) (UniProt O60285)
HIPK3 (human) = HIPK3 (human) (UniProt Q9H422)
JAK2 JH1 JH2 (human) = JAK2 JH1 JH2 (human) (UniProt O60674)
PRKCZ (human) = PRKCZ (human) (UniProt Q05513)
RPS6KA1 KD1 KD2 (human) = RPS6KA1 KD1 KD2 (human) (UniProt Q15418)
CHEK1 (human) = CHEK1 (human) (UniProt O14757)
MARK3 (human) = MARK3 (human) (UniProt P27448)
DAPK1 (human) = DAPK1 (human) (UniProt P53355)
EPHB4 (human) = EPHB4 (human) (UniProt P54760)
RPS6KA5 KD1 KD2 (human) = RPS6KA5 KD1 KD2 (human) (UniProt O75582)

Sequence of ERBB4 (human) (Q15303 whole entry, looked up): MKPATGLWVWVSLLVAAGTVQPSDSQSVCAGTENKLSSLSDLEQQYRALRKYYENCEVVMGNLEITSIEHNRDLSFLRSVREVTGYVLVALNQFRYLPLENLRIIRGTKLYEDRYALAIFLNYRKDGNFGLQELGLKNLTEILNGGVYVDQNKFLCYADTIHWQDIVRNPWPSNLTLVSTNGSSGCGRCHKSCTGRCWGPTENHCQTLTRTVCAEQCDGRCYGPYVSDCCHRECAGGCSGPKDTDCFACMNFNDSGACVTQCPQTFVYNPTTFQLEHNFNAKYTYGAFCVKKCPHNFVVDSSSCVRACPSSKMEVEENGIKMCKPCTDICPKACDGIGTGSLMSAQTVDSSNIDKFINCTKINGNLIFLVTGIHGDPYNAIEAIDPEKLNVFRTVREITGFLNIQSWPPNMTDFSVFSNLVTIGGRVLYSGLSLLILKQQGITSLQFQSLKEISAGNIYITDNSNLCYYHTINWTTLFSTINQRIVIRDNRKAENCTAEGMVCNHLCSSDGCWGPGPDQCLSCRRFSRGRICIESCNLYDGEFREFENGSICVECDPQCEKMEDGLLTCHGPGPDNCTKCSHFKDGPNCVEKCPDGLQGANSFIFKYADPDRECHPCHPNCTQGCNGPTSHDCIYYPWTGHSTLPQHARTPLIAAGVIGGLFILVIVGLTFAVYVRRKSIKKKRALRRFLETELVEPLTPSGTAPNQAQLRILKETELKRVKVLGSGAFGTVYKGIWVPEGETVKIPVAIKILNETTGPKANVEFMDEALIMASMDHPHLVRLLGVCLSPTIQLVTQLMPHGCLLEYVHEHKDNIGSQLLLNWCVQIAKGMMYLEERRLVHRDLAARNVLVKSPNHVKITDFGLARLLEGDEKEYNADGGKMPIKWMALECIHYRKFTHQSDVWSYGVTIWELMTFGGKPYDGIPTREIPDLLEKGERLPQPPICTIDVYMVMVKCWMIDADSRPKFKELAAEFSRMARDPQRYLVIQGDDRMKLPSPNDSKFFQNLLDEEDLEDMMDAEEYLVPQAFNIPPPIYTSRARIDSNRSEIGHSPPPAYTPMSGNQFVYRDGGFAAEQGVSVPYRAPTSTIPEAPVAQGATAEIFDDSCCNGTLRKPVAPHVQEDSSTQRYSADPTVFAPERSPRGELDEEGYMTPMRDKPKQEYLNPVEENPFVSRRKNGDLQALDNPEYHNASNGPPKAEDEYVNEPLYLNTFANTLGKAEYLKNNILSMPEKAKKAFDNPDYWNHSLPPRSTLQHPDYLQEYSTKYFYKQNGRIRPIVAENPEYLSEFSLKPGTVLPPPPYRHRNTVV
Sequence of MST4 (human) (Q9P289 whole entry, looked up): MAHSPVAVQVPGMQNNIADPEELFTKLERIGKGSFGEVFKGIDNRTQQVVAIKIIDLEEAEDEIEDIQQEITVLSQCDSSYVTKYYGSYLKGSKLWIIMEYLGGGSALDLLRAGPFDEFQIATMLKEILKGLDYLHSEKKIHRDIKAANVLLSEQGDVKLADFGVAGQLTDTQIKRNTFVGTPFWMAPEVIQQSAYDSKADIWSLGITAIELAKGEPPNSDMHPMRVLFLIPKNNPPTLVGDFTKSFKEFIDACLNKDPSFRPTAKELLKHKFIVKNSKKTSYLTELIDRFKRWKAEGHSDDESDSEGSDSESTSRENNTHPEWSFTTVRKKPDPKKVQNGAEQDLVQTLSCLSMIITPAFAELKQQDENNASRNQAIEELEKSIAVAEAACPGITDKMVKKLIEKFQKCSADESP
Sequence of RPS6KA1 KD1 KD2 (human) (Q15418 whole entry, looked up): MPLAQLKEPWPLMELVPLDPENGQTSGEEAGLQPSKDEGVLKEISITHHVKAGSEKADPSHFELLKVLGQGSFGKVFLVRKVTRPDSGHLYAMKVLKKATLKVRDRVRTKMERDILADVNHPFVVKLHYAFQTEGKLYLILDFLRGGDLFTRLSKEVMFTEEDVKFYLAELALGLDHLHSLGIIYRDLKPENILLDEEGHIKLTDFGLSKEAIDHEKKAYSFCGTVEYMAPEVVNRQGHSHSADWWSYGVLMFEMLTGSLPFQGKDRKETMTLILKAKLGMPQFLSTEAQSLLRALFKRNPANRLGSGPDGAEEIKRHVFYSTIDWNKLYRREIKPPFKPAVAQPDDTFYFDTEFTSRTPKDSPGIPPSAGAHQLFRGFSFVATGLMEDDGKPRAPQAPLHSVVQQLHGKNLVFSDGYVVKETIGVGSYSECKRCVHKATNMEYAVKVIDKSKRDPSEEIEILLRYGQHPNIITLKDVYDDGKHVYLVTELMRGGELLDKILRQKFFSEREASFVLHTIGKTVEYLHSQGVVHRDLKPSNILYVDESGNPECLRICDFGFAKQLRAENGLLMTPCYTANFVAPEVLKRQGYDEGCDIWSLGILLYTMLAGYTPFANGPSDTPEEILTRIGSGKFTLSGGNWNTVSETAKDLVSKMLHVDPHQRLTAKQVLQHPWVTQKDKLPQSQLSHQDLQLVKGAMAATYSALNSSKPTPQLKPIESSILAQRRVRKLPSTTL
Sequence of NUAK1 (human) (O60285 whole entry, looked up): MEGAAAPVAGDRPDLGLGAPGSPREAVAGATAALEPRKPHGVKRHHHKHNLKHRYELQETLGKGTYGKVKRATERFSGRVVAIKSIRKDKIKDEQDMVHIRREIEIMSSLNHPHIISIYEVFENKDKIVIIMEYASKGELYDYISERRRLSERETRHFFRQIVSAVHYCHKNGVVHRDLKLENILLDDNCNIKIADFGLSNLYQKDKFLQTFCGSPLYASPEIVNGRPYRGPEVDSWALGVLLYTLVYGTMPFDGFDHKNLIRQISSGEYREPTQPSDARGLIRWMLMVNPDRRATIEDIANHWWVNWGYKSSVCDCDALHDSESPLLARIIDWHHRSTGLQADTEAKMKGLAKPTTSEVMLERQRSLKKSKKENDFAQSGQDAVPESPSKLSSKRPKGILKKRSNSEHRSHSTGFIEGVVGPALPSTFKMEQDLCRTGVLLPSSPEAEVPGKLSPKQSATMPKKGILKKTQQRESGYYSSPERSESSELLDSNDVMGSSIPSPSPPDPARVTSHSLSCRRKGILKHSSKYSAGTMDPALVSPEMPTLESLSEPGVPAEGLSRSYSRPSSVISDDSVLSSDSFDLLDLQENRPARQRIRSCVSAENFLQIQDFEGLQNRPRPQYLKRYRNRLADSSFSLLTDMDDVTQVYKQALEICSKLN
Sequence of CHEK2 (human) (O96017 whole entry, looked up): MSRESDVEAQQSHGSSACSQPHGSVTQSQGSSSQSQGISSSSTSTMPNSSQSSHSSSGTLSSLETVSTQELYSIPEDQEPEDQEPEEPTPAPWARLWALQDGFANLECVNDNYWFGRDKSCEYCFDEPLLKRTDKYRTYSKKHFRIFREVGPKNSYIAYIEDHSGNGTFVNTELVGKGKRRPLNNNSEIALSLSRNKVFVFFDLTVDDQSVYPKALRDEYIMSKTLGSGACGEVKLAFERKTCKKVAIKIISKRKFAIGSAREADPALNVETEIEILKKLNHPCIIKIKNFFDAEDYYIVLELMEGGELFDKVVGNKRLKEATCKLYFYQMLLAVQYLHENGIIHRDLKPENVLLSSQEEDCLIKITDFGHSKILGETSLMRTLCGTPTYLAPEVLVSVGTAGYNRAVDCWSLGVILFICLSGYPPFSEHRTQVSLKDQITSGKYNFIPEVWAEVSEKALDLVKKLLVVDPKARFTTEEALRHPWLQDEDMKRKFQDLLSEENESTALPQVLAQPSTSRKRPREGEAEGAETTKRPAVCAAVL
Sequence of BRSK2 (human) (Q8IWQ3 whole entry, looked up): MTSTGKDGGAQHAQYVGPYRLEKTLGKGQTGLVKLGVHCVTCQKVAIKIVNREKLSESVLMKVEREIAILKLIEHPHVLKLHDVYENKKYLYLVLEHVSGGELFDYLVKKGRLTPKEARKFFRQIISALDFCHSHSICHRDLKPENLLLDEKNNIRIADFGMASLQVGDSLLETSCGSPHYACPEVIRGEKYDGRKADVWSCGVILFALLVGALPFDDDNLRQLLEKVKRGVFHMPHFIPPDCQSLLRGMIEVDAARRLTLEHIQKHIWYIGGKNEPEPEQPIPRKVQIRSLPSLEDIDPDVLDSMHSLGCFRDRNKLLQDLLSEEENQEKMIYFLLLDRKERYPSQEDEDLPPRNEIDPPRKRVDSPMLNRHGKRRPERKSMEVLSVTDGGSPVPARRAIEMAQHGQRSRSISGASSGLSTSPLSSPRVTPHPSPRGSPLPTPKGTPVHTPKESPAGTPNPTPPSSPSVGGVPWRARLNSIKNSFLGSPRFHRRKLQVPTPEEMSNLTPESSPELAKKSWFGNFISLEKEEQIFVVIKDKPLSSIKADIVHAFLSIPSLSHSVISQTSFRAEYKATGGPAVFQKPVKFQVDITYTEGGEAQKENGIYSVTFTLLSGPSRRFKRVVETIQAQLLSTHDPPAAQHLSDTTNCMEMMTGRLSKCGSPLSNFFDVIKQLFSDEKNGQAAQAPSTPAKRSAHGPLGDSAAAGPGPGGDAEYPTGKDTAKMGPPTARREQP
Sequence of CHEK1 (human) (O14757 whole entry, looked up): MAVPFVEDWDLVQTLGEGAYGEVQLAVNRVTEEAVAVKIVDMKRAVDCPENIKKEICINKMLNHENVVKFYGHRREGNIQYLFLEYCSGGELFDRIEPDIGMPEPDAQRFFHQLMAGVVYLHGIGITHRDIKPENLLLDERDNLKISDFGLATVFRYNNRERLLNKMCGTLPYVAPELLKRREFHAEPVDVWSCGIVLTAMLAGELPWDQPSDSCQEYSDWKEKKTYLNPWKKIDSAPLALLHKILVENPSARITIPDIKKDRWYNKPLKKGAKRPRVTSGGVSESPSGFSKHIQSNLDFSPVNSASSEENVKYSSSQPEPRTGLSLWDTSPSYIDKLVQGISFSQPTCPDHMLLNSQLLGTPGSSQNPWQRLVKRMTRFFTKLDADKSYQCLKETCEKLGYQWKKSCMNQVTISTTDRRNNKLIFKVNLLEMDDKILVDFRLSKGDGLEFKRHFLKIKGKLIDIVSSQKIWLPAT

## COc1cc(O)c2c(c1)[C@H]1OC1C[C@H](O)[C@H](O)C(=O)/C=C\C[C@H](C)OC2=O (some centres not stated)
CLK2 (human); compound 0.01 µM
  residual activity: 94%
CLK2 (human); compound 0.1 µM
  residual activity: 100%
SRC (human); compound 0.01 µM
  residual activity: 96%
SRC (human); compound 0.1 µM
  residual activity: 91%
SRC (human); compound 1.0 µM
  residual activity: 86%
MST4 (human); compound 0.01 µM
  residual activity: 96%
MST4 (human); compound 0.1 µM
  residual activity: 106%
MST4 (human); compound 1.0 µM
  residual activity: 86%
GCK (human); compound 0.01 µM
  residual activity: 114%
GCK (human); compound 0.1 µM
  residual activity: 105%
GCK (human); compound 1.0 µM
  residual activity: 97%
RPS6KA3 KD1 KD2 (human); compound 0.01 µM
  residual activity: 129%
RPS6KA3 KD1 KD2 (human); compound 0.1 µM
  residual activity: 125%
RPS6KA3 KD1 KD2 (human); compound 1.0 µM
  residual activity: 129%
MAPK3 (human); compound 0.01 µM
  residual activity: 111%
MAPK3 (human); compound 0.1 µM
  residual activity: 102%
MAPK3 (human); compound 1.0 µM
  residual activity: 57%
MARK4 (human); compound 0.01 µM
  residual activity: 103%
MARK4 (human); compound 0.1 µM
  residual activity: 99%
[1]; compound 0.01 µM
  residual activity: 93%
[1]; compound 0.1 µM
  residual activity: 91%
[1]; compound 1.0 µM
  residual activity: 104%
BRSK2 (human); compound 0.01 µM
  residual activity: 114%
BRSK2 (human); compound 0.1 µM
  residual activity: 93%
BRSK2 (human); compound 1.0 µM
  residual activity: 96%
PRKCA (human); compound 0.01 µM
  residual activity: 88%
PRKCA (human); compound 0.1 µM
  residual activity: 88%
PRKCA (human); compound 1.0 µM
  residual activity: 92%
MAP3K5 (human); compound 0.01 µM
  residual activity: 105%
MAP3K5 (human); compound 0.1 µM
  residual activity: 103%
MAP3K5 (human); compound 1.0 µM
  residual activity: 109%
STK3 (human); compound 0.01 µM
  residual activity: 97%
STK3 (human); compound 0.1 µM
  residual activity: 89%
STK3 (human); compound 1.0 µM
  residual activity: 102%
HIPK1 (human); compound 0.01 µM
  residual activity: 111%
HIPK1 (human); compound 0.1 µM
  residual activity: 99%
HIPK1 (human); compound 1.0 µM
  residual activity: 95%
ERBB4 (human); compound 0.1 µM
  residual activity: 104%
ERBB4 (human); compound 1.0 µM
  residual activity: 105%
MAP3K1 (human); compound 0.01 µM
  residual activity: 112%
MAP3K1 (human); compound 0.1 µM
  residual activity: 101%
MAP3K1 (human); compound 1.0 µM
  residual activity: 102%
AURKA (human); compound 0.01 µM
  residual activity: 106%
AURKA (human); compound 0.1 µM
  residual activity: 103%
AURKA (human); compound 1.0 µM
  residual activity: 108%
MAPK1 (human); compound 0.01 µM
  residual activity: 96%
MAPK1 (human); compound 0.1 µM
  residual activity: 87%
MAPK1 (human); compound 1.0 µM
  residual activity: 36%
PAK6 (human); compound 0.01 µM
  residual activity: 92%
PAK6 (human); compound 0.1 µM
  residual activity: 95%
PAK6 (human); compound 1.0 µM
  residual activity: 95%
CHEK2 (human); compound 0.01 µM
  residual activity: 91%
CHEK2 (human); compound 0.1 µM
  residual activity: 91%
FLT1 (human); compound 0.01 µM
  residual activity: 65%
FLT1 (human); compound 0.1 µM
  residual activity: 5%
FLT1 (human); compound 1.0 µM
  residual activity: 3%
CDK2 CCNA2 (human); compound 0.01 µM
  residual activity: 91%
CDK2 CCNA2 (human); compound 0.1 µM
  residual activity: 81%
CDK2 CCNA2 (human); compound 1.0 µM
  residual activity: 76%
PLK1 (human); compound 0.01 µM
  residual activity: 102%
PLK1 (human); compound 0.1 µM
  residual activity: 107%
PLK1 (human); compound 1.0 µM
  residual activity: 114%
NTRK1 (human); compound 0.01 µM
  residual activity: 97%
NTRK1 (human); compound 0.1 µM
  residual activity: 90%
NTRK1 (human); compound 1.0 µM
  residual activity: 67%
TAOK1 (human); compound 0.01 µM
  residual activity: 106%
TAOK1 (human); compound 0.1 µM
  residual activity: 101%
TAOK1 (human); compound 1.0 µM
  residual activity: 100%
EEF2K (human); compound 0.01 µM
  residual activity: 91%
EEF2K (human); compound 0.1 µM
  residual activity: 103%
NUAK1 (human); compound 0.01 µM
  residual activity: 93%
NUAK1 (human); compound 0.1 µM
  residual activity: 99%
NUAK1 (human); compound 1.0 µM
  residual activity: 105%
HIPK3 (human); compound 0.01 µM
  residual activity: 104%
HIPK3 (human); compound 0.1 µM
  residual activity: 100%
HIPK3 (human); compound 1.0 µM
  residual activity: 102%
JAK2 JH1 JH2 (human); compound 0.01 µM
  residual activity: 84%
JAK2 JH1 JH2 (human); compound 0.1 µM
  residual activity: 101%
PRKCZ (human); compound 0.01 µM
  residual activity: 97%
PRKCZ (human); compound 0.1 µM
  residual activity: 78%
PRKCZ (human); compound 1.0 µM
  residual activity: 105%
RPS6KA1 KD1 KD2 (human); compound 0.1 µM
  residual activity: 92%
RPS6KA1 KD1 KD2 (human); compound 1.0 µM
  residual activity: 85%
CHEK1 (human); compound 0.01 µM
  residual activity: 93%
CHEK1 (human); compound 0.1 µM
  residual activity: 93%
CHEK1 (human); compound 1.0 µM
  residual activity: 94%
MARK3 (human); compound 0.01 µM
  residual activity: 98%
MARK3 (human); compound 0.1 µM
  residual activity: 102%
MARK3 (human); compound 1.0 µM
  residual activity: 95%
DAPK1 (human); compound 0.01 µM
  residual activity: 82%
DAPK1 (human); compound 0.1 µM
  residual activity: 108%
DAPK1 (human); compound 1.0 µM
  residual activity: 96%
EPHB4 (human); compound 0.01 µM
  residual activity: 109%
EPHB4 (human); compound 0.1 µM
  residual activity: 116%
RPS6KA5 KD1 KD2 (human); compound 0.01 µM
  residual activity: 108%
RPS6KA5 KD1 KD2 (human); compound 0.1 µM
  residual activity: 104%
RPS6KA5 KD1 KD2 (human); compound 1.0 µM
  residual activity: 104%

## COc1cc2ncn(-c3cc(OCc4ccccc4S(C)(=O)=O)c(C#N)s3)c2cc1OC
CLK2 (human); compound 10.0 µM
  residual activity: 18%
SRC (human); compound 1.0 µM
  residual activity: 57%
SRC (human); compound 10.0 µM
  residual activity: 64%
MST4 (human); compound 10.0 µM
  residual activity: 47%
GCK (human); compound 1.0 µM
  residual activity: 24%
GCK (human); compound 10.0 µM
  residual activity: 8%
RPS6KA3 KD1 KD2 (human); compound 1.0 µM
  residual activity: 82%
RPS6KA3 KD1 KD2 (human); compound 10.0 µM
  residual activity: 57%
MAPK3 (human); compound 1.0 µM
  residual activity: 101%
MAPK3 (human); compound 10.0 µM
  residual activity: 77%
MARK4 (human); compound 1.0 µM
  residual activity: 57%
MARK4 (human); compound 10.0 µM
  residual activity: 42%
[1]; compound 1.0 µM
  residual activity: 105%
BRSK2 (human); compound 10.0 µM
  residual activity: 30%
PRKCA (human); compound 1.0 µM
  residual activity: 96%
PRKCA (human); compound 10.0 µM
  residual activity: 88%
MAP3K5 (human); compound 1.0 µM
  residual activity: 83%
MAP3K5 (human); compound 10.0 µM
  residual activity: 69%
STK3 (human); compound 1.0 µM
  residual activity: 19%
STK3 (human); compound 10.0 µM
  residual activity: 7%
HIPK1 (human); compound 10.0 µM
  residual activity: 58%
ERBB4 (human); compound 1.0 µM
  residual activity: 78%
ERBB4 (human); compound 10.0 µM
  residual activity: 84%
MAP3K1 (human); compound 1.0 µM
  residual activity: 77%
MAP3K1 (human); compound 10.0 µM
  residual activity: 54%
AURKA (human); compound 1.0 µM
  residual activity: 29%
AURKA (human); compound 10.0 µM
  residual activity: 6%
MAPK1 (human); compound 1.0 µM
  residual activity: 104%
MAPK1 (human); compound 10.0 µM
  residual activity: 88%
PAK6 (human); compound 1.0 µM
  residual activity: 95%
PAK6 (human); compound 10.0 µM
  residual activity: 67%
CHEK2 (human); compound 1.0 µM
  residual activity: 19%
CHEK2 (human); compound 10.0 µM
  residual activity: 19%
FLT1 (human); compound 1.0 µM
  residual activity: 15%
FLT1 (human); compound 10.0 µM
  residual activity: 23%
CDK2 CCNA2 (human); compound 1.0 µM
  residual activity: 100%
CDK2 CCNA2 (human); compound 10.0 µM
  residual activity: 99%
PLK1 (human); compound 1.0 µM
  residual activity: 65%
PLK1 (human); compound 10.0 µM
  residual activity: 55%
NTRK1 (human); compound 1.0 µM
  residual activity: 30%
NTRK1 (human); compound 10.0 µM
  residual activity: 28%
TAOK1 (human); compound 1.0 µM
  residual activity: 61%
TAOK1 (human); compound 10.0 µM
  residual activity: 27%
EEF2K (human); compound 1.0 µM
  residual activity: 105%
EEF2K (human); compound 10.0 µM
  residual activity: 98%
NUAK1 (human); compound 1.0 µM
  residual activity: 35%
NUAK1 (human); compound 10.0 µM
  residual activity: 35%
HIPK3 (human); compound 1.0 µM
  residual activity: 102%
HIPK3 (human); compound 10.0 µM
  residual activity: 61%
JAK2 JH1 JH2 (human); compound 1.0 µM
  residual activity: 34%
JAK2 JH1 JH2 (human); compound 10.0 µM
  residual activity: 18%
PRKCZ (human); compound 1.0 µM
  residual activity: 97%
PRKCZ (human); compound 10.0 µM
  residual activity: 95%
RPS6KA1 KD1 KD2 (human); compound 1.0 µM
  residual activity: 50%
RPS6KA1 KD1 KD2 (human); compound 10.0 µM
  residual activity: 28%
CHEK1 (human); compound 1.0 µM
  residual activity: 79%
CHEK1 (human); compound 10.0 µM
  residual activity: 64%
MARK3 (human); compound 1.0 µM
  residual activity: 31%
MARK3 (human); compound 10.0 µM
  residual activity: 41%
DAPK1 (human); compound 1.0 µM
  residual activity: 54%
DAPK1 (human); compound 10.0 µM
  residual activity: 51%
EPHB4 (human); compound 1.0 µM
  residual activity: 94%
EPHB4 (human); compound 10.0 µM
  residual activity: 82%
RPS6KA5 KD1 KD2 (human); compound 1.0 µM
  residual activity: 78%
RPS6KA5 KD1 KD2 (human); compound 10.0 µM
  residual activity: 58%
